# Test results: patent US10443078B2, “Pichia kudriavzevii NG7 microorganism and uses thereof” (Korea Research Institute of Bioscience and Biotechnology, priority 2014, dated 2019)
# Numbered stars: 1 amine (or outer) side, 2 acyl side, 3 side chain; on linkers, the order of the positions; unused ones are H or OH. Square brackets hold non-standard residues; d marks the D form. Peptide text beside a SMILES is read from it. X1 = CC[C@@H](C)[C@@H](O[*:1])C(=O)[*:2]; NMeVal(β-OH) = CN[C@H](C(=O)O)C(C)(C)O; NMeF = CN[C@@H](Cc1ccccc1)C(=O)O; aIle = CC[C@@H](C)[C@H](N)C(=O)O; NMeV = CN[C@H](C(=O)O)C(C)C
# Tests used:
# Experiment in all cases: Antibiotic resistance of isolated microorganisms on YPD solid medium
# Conditions in all cases: zeocin, G418, nourseothricin, hygromycin 100 μg/mL, cycloheximide 1 μg/mL, aureobasidin A 0.1 μg/mL, 30° C.
# NG1 microorganism = assay type: cell-based, Issatchenkia occidentalis
# Procedure: (§1) The antibiotic resistance of the selected three different kinds of microorganisms to various antibiotics was examined. The antibiotics used were zeocin (100 μg/mL), G418 (100 μg/mL), cycloheximide (1 μg/mL), aureobasidin A (0.1 μg/mL), nourseothricin (100 μg/mL), and hygromycin (100 μg/mL). Each of the cell cultures of the isolated microorganisms was dotted on YPD solid medium (yeast extract (1%), peptone (2%), glucose (2%), and agar (2%)) and cultured at 30° C.
# NG7 microorganism = assay type: cell-based, Pichia kudriavzevii
# Procedure: as §1
# 2-2 microorganism = assay type: cell-based, Pichia kudriavzevii
# Procedure: as §1
Compound,Resistance of microorganism NG1 to antibiotic (NG1 microorganism),Resistance of microorganism NG1 to antibiotic (NG1 microorganism; listed as aureobasidin A),Resistance of microorganism NG7 to antibiotic (NG7 microorganism),Resistance of microorganism NG7 to antibiotic (NG7 microorganism; listed as aureobasidin A),Resistance of microorganism 2-2 to antibiotic (2-2 microorganism),Resistance of microorganism 2-2 to antibiotic (2-2 microorganism; listed as aureobasidin A),Resistance of microorganism NG1 to antibiotic (NG1 microorganism; listed as cycloheximide),Resistance of microorganism NG7 to antibiotic (NG7 microorganism; listed as cycloheximide),Resistance of microorganism 2-2 to antibiotic (2-2 microorganism; listed as cycloheximide),Resistance of microorganism NG1 to antibiotic (NG1 microorganism; listed as zeocin),Resistance of microorganism NG7 to antibiotic (NG7 microorganism; listed as zeocin),Resistance of microorganism 2-2 to antibiotic (2-2 microorganism; listed as zeocin),Resistance of microorganism NG1 to antibiotic (NG1 microorganism; listed as nourseothricin),Resistance of microorganism NG7 to antibiotic (NG7 microorganism; listed as nourseothricin),Resistance of microorganism 2-2 to antibiotic (2-2 microorganism; listed as nourseothricin)
"CC[C@@H](C)[C@@H]1NC(=O)[C@@H]2CCCN2C(=O)[C@H](Cc2ccccc2)N(C)C(=O)[C@H](Cc2ccccc2)NC(=O)[C@H](C(C)C)N(C)C(=O)[C@@H]([C@H](C)CC)OC(=O)[C@H](C(C)(C)O)N(C)C(=O)[C@H](CC(C)C)NC(=O)[C@H](C(C)C)N(C)C1=O [Aureobasidin A, aureobasidin A] (cyclo(F[NMeF]P[aIle][NMeV]L[NMeVal(β-OH)][X1][NMeV]))",−,no resistance,−,no resistance,−,no resistance,,,,,,,,,
"C[C@@H]1C[C@@H]([C@H](O)CC2CC(=O)NC(=O)C2)C(=O)[C@@H](C)C1 [Cycloheximide, cycloheximide]",+,,+,,+,,resistance,resistance,resistance,,,,,,
CN[C@@H]1[C@@H](O)[C@@H](O[C@@H]2[C@@H](O)[C@H](O[C@H]3O[C@H]([C@@H](C)O)[C@@H](O)[C@H](O)[C@H]3N)[C@@H](N)C[C@H]2N)OC[C@]1(C)O [G418],resistance and +,,resistance and +,,resistance and +,,,,,,,,,,
"Cc1c(N)nc([C@H](CC(N)=O)NC[C@H](N)C(N)=O)nc1C(=O)N[C@H](C(=O)N[C@H](C)[C@@H](O)[C@H](C)C(=O)N[C@H](C(=O)NCCC1=N[C@@H](c2nc(C(=O)NCCCCN=C(N)N)cs2)CS1)[C@@H](C)O)[C@@H](O[C@@H]1O[C@@H](CO)[C@@H](O)[C@H](O)[C@@H]1O[C@H]1O[C@H](CO)[C@@H](O)[C@H](OC(N)=O)[C@@H]1O)c1cnc[nH]1 [Zeocin, zeocin]",+,,+,,+,,,,,resistance,resistance,resistance,,,
nourseothricin,−,,−,,−,,,,,,,,no resistance,no resistance,no resistance
